The CheMixHub drug solubility set

Experiment: xn = mol fraction of the nth substance listed, in the solute-free solvent

Nc1cc(-c2ccncc2)c[nH]c1=O + OCCO + O
solubility (g/100 g solution)
Conditions	278.15 K	283.15 K	288.15 K	293.15 K	298.15 K	303.15 K	308.15 K	313.15 K	318.15 K	323.15 K
x2 = 0.03125	0.000969	0.00114	0.00136	0.0016	0.00188	0.00216	0.00248	0.00283	0.00323	0.00367
x2 = 0.06767	0.00136	0.0016	0.00191	0.00224	0.00262	0.00301	0.00345	0.00393	0.00447	0.00508
x2 = 0.1107	0.00187	0.00221	0.00263	0.0031	0.00358	0.00411	0.00469	0.00542	0.00618	0.00703
x2 = 0.1622	0.00264	0.00312	0.00368	0.00432	0.00505	0.00577	0.00658	0.00746	0.00845	0.00955
x2 = 0.225	0.0034	0.00407	0.00476	0.00562	0.00649	0.00751	0.00852	0.00976	0.0111	0.0126
x2 = 0.3034	0.00444	0.00524	0.00616	0.00725	0.00846	0.00962	0.0109	0.0124	0.014	0.0158
x2 = 0.4038	0.00528	0.00637	0.00751	0.00882	0.0103	0.0117	0.0131	0.0148	0.0168	0.0189
x2 = 0.5373	0.00588	0.00697	0.00817	0.00966	0.0113	0.0128	0.0146	0.0165	0.0186	0.021
x2 = 0.7232	0.00648	0.00764	0.00919	0.0108	0.0123	0.014	0.016	0.0178	0.0199	0.0224

CC(C)C(=O)Nc1ccc([N+](=O)[O-])c(C(F)(F)F)c1 + C1COCCO1 + O
solubility (g/100 g solution)
Conditions	283.15 K	288.15 K	293.15 K	298.15 K	303.15 K	308.15 K	313.15 K	318.15 K	323.15 K
x2 = 0.02222	0.00748	0.00971	0.0126	0.0163	0.0208	0.0262	0.033	0.0406	0.0498
x2 = 0.04865	0.0654	0.0845	0.108	0.135	0.17	0.212	0.26	0.316	0.382
x2 = 0.0806	0.391	0.472	0.574	0.691	0.832	0.993	1.17	1.38	1.63
x2 = 0.12	1.34	1.61	1.89	2.2	2.56	2.98	3.46	3.97	4.55
x2 = 0.1698	3.72	4.33	5.02	5.81	6.62	7.58	8.62	9.74	11
x2 = 0.2348	7.42	8.68	9.98	11.4	13	14.8	16.6	18.7	20.9
x2 = 0.3231	12.2	14.1	16.3	18.5	20.8	23.4	26.1	28.9	31.9
x2 = 0.45	18.1	20.6	23.5	26.6	29.8	33.3	36.7	40.4	44.1
x2 = 0.648	24.9	28	31.2	34.6	38.2	41.8	45.6	49.4	53.2

Nc1ncn(C2OC(CO)C(O)C2O)c(=O)n1 (centres undefined) + O + CCO
solubility (g/100 g solution)
Conditions	278.15 K	283.15 K	288.15 K	293.15 K	298.15 K	303.15 K	308.15 K	313.15 K	318.15 K
x2 = 0.3899	0.0889	0.101	0.115	0.133	0.153	0.177	0.206	0.238	0.275
x2 = 0.6302	0.186	0.217	0.255	0.298	0.349	0.406	0.469	0.538	0.618
x2 = 0.7932	0.302	0.369	0.443	0.524	0.614	0.709	0.813	0.924	1.05
x2 = 0.9109	0.498	0.588	0.704	0.836	0.976	1.12	1.28	1.46	1.65

NC(N)=C([N+](=O)[O-])[N+](=O)[O-] + CS(C)=O + O=C1CCCC1
solubility (g/100 g solution)
Conditions	293.15 K	298.15 K	303.15 K	308.15 K	313.15 K	318.15 K	323.15 K	328.15 K	333.15 K
x2 = 0.1177	3.67	3.8	4.06	4.31	4.57	4.86	5.16	5.5	5.84
x2 = 0.2308	7.45	7.83	8.19	8.56	8.97	9.37	9.83	10.2	10.7
x2 = 0.3397	11.5	12.1	12.6	13	13.5	14	14.5	15	15.6
x2 = 0.4445	15.2	15.8	16.2	16.6	17.1	17.6	18.3	18.9	19.5
x2 = 0.5455	18.5	19.2	19.7	20.1	20.6	21.1	21.7	22.3	22.9
x2 = 0.6429	21.3	21.9	22.4	22.9	23.4	24	24.6	25.1	25.8
x2 = 0.7369	23.8	24.6	25	25.5	26.1	26.6	27.2	27.8	28.5
x2 = 0.8276	26	26.5	27	27.4	28.1	28.6	29.2	29.8	30.4
x2 = 0.9153	27.7	28.5	29	29.4	30	30.5	31.1	31.8	32.4

Nc1cccc2c1CN(C1CCC(=O)NC1=O)C2=O (centres undefined) + CC#N + CO
solubility (g/100 g solution)
Conditions	273.15 K	278.15 K	283.15 K	288.15 K	293.15 K	298.15 K	303.15 K	308.15 K	313.15 K	318.15 K
x2 = 0.1633	0.557	0.585	0.618	0.646	0.686	0.727	0.771	0.821	0.871	0.922
x2 = 0.3423	0.674	0.696	0.729	0.767	0.805	0.849	0.89	0.935	0.98	1.03
x2 = 0.5394	0.771	0.811	0.855	0.901	0.948	0.997	1.05	1.1	1.16	1.22
x2 = 0.7574	0.653	0.682	0.713	0.752	0.794	0.84	0.89	0.942	0.996	1.05

COC(=O)Nc1nc2ccccc2[nH]1 + CO + O
solubility (g/100 g solution)
Conditions	278.15 K	283.15 K	288.15 K	293.15 K	298.15 K	303.15 K	308.15 K	313.15 K	318.15 K
x2 = 0.05887	0.00186	0.00222	0.00268	0.00321	0.00385	0.00444	0.00519	0.00603	0.00702
x2 = 0.1235	0.00537	0.00636	0.00764	0.00907	0.0107	0.0124	0.0144	0.0166	0.0191
x2 = 0.1941	0.00989	0.0117	0.0141	0.0168	0.0198	0.0228	0.0265	0.0306	0.0353
x2 = 0.2725	0.0136	0.0162	0.0196	0.0233	0.0275	0.032	0.0372	0.0432	0.0499
x2 = 0.36	0.0154	0.0185	0.0226	0.0279	0.0321	0.0378	0.0443	0.0516	0.06
x2 = 0.4579	0.0159	0.0192	0.0239	0.0289	0.0343	0.0409	0.0482	0.0567	0.0663
x2 = 0.5666	0.016	0.0196	0.0245	0.03	0.0357	0.0432	0.0513	0.0609	0.0717
x2 = 0.6924	0.0163	0.0203	0.0258	0.0316	0.0381	0.0463	0.0557	0.0664	0.0791
x2 = 0.8362	0.0175	0.0219	0.0281	0.0347	0.0418	0.0516	0.0624	0.075	0.0897
